Test results reported in the NIST ThermoML archive (doi:10.1016/j.jct.2004.04.003).
Values joined by “and” are separate entries in the source; they are usually repeats but may differ in a detail not shown here. Equal values may be shown once. ± gives the expanded uncertainty stated by the source.

Test: molar heat capacity at saturation pressure
Conditions: Vacuum adiabatic calorimetry

C1CCC(C2CCCC2)C1 [1,1'-bicyclopentyl]
Conditions | molar heat capacity
10 K, Crystal 3 | 2.73 ± 0.04 J/K/mol
11.5 K, Crystal 3 | 4.08 ± 0.04 J/K/mol
11.8 K, Crystal 3 | 4.35 ± 0.05 J/K/mol
13.17 K, Crystal 3 | 5.8 ± 0.06 J/K/mol
13.37 K, Crystal 3 | 6.03 ± 0.06 J/K/mol
14.83 K, Crystal 3 | 7.75 ± 0.07 J/K/mol
14.99 K, Crystal 3 | 7.95 ± 0.07 J/K/mol
16.64 K, Crystal 3 | 10.09 ± 0.07 J/K/mol
16.69 K, Crystal 3 | 10.19 ± 0.083 J/K/mol
18.46 K, Crystal 3 | 12.62 ± 0.091 J/K/mol
18.63 K, Crystal 3 | 12.87 ± 0.091 J/K/mol
20 K, Crystal 3 | 14.82 ± 0.1 J/K/mol
20.51 K, Crystal 3 | 15.56 ± 0.1 J/K/mol
20.71 K, Crystal 3 | 15.86 ± 0.1 J/K/mol
22.72 K, Crystal 3 | 18.82 ± 0.11 J/K/mol
22.99 K, Crystal 3 | 19.31 ± 0.11 J/K/mol
25.1 K, Crystal 3 | 22.6 ± 0.12 J/K/mol
25.32 K, Crystal 3 | 22.88 ± 0.12 J/K/mol
27.67 K, Crystal 3 | 26.42 ± 0.12 J/K/mol
30 K, Crystal 3 | 29.89 ± 0.11 J/K/mol
30.51 K, Crystal 3 | 30.65 ± 0.11 J/K/mol
33.62 K, Crystal 3 | 35.24 ± 0.12 J/K/mol
37.09 K, Crystal 3 | 40.13 ± 0.12 J/K/mol
40 K, Crystal 3 | 44.07 ± 0.13 J/K/mol
40.84 K, Crystal 3 | 45.17 ± 0.13 J/K/mol
44.81 K, Crystal 3 | 49.8 ± 0.14 J/K/mol
49.26 K, Crystal 3 | 55.04 ± 0.15 J/K/mol
50 K, Crystal 3 | 55.91 ± 0.15 J/K/mol
54.23 K, Crystal 3 | 60.6 ± 0.17 J/K/mol
54.24 K, Crystal 3 | 60.62 ± 0.17 J/K/mol
59.45 K, Crystal 3 | 65.6 ± 0.17 J/K/mol
60 K, Crystal 3 | 66.15 ± 0.17 J/K/mol
65.02 K, Crystal 3 | 70.77 ± 0.18 J/K/mol
70 K, Crystal 3 | 74.88 ± 0.19 J/K/mol
71.12 K, Crystal 3 | 75.75 ± 0.19 J/K/mol
77.81 K, Crystal 3 | 80.69 ± 0.2 J/K/mol
80 K, Crystal 3 | 82.21 ± 0.21 J/K/mol
84.9 K, Crystal 3 | 85.44 ± 0.21 J/K/mol
90 K, Crystal 3 | 88.7 ± 0.29 J/K/mol
90.4 K, Crystal 3 | 88.97 ± 0.29 J/K/mol
92.15 K, Crystal 3 | 90 ± 0.29 J/K/mol
95.17 K, Crystal 3 | 91.72 ± 0.29 J/K/mol
97.64 K, Crystal 3 | 93.21 ± 0.29 J/K/mol
100 K, Crystal 3 | 94.56 ± 0.29 J/K/mol
102.4 K, Crystal 3 | 95.85 ± 0.3 J/K/mol
105.1 K, Crystal 3 | 97.46 ± 0.3 J/K/mol
110 K, Crystal 3 | 100.28 ± 0.3 J/K/mol
112.84 K, Crystal 3 | 102.05 ± 0.3 J/K/mol
116.54 K, Crystal 3 | 104.26 ± 0.31 J/K/mol
118.13 K, Crystal 3 | 105.18 ± 0.31 J/K/mol
118.17 K, Crystal 3 | 105.56 ± 0.31 J/K/mol
120 K, Crystal 3 | 106.6 ± 0.31 J/K/mol
120.99 K, Crystal 3 | 107.39 ± 0.31 J/K/mol
126.75 K, Crystal 3 | 111.08 ± 0.31 J/K/mol
128.4 K, Crystal 1 | 115.78 ± 0.32 J/K/mol
128.4 K, Crystal 3 | 112.23 ± 0.32 J/K/mol
130 K, Crystal 1 | 116.49 ± 0.32 J/K/mol
133.46 K, Crystal 2 | 118.05 ± 0.32 J/K/mol
133.78 K, Crystal 2 | 118.67 ± 0.32 J/K/mol
134.12 K, Crystal 2 | 118.41 ± 0.32 J/K/mol
135.2 K, Crystal 2 | 118.41 ± 0.32 J/K/mol
139.41 K, Crystal 2 | 121.01 ± 0.32 J/K/mol
140 K, Crystal 1 | 121.32 ± 0.32 J/K/mol
142.47 K, Crystal 2 | 122.75 ± 0.32 J/K/mol
143.12 K, Crystal 2 | 122.93 ± 0.32 J/K/mol
150 K, Crystal 1 | 126.87 ± 0.32 J/K/mol
151.25 K, Crystal 2 | 127.64 ± 0.32 J/K/mol
152.11 K, Crystal 2 | 128.17 ± 0.33 J/K/mol
160 K, Crystal 1 | 133.12 ± 0.33 J/K/mol
160.68 K, Crystal 2 | 133.74 ± 0.34 J/K/mol
160.78 K, Crystal 2 | 133.46 ± 0.34 J/K/mol
166.89 K, Crystal 2 | 138.79 ± 0.34 J/K/mol
170 K, Crystal 1 | 140.08 ± 0.34 J/K/mol
171.5 K, Crystal 1 | 141.19 ± 0.34 J/K/mol and 136.32 ± 0.33 J/K/mol
173.81 K, Crystal 1 | 137.58 ± 0.34 J/K/mol
178.13 K, Crystal 1 | 139.77 ± 0.34 J/K/mol
180 K, Crystal 1 | 141.36 ± 0.34 J/K/mol
181.67 K, Crystal 1 | 142.75 ± 0.34 J/K/mol
182.42 K, Crystal 1 | 143.41 ± 0.34 J/K/mol
186.12 K, Crystal 1 | 145.42 ± 0.35 J/K/mol
190 K, Crystal 1 | 148.08 ± 0.35 J/K/mol
190.41 K, Crystal 1 | 148.06 ± 0.35 J/K/mol
194.17 K, Crystal 1 | 151.17 ± 0.35 J/K/mol
200 K, Crystal 1 | 155.66 ± 0.36 J/K/mol
202.37 K, Crystal 1 | 157.69 ± 0.36 J/K/mol
210 K, Crystal 1 | 164.11 ± 0.37 J/K/mol
